Assay results published in ChEMBL document CHEMBL3217664, “Synthesis and biological evaluation of 4-chlorocolchicine derivatives as potent anticancer agents with broad effective dosage ranges” (Medchemcomm, 2012).

How the values were obtained:
Mus musculus [1] = assay: Toxicity in BALB/c mouse assessed as mortality at 15 mg/kg/day, iv administered on day 1, 5 and 9; assay type: organism-based; set-up: route intravenous; settings: in vivo
Mus musculus [2] = assay: Toxicity in BALB/c mouse assessed as mortality at 7.5 mg/kg/day, iv administered on day 1, 5 and 9; assay type: organism-based; set-up: route intravenous; settings: in vivo
HCT-116 [3] = assay: Antitumor activity against human HCT116 cells xenografted in BALB/c mouse assessed as tumor growth inhibition at 7.5 mg/kg/day, iv administered on day 1, 5 and 9 relative to control; assay type: functional; settings: HCT-116, 24 h, read-out: TGI
HCT-116 [4] = assay: Antitumor activity against human HCT116 cells xenografted in BALB/c mouse assessed as tumor growth inhibition at 1.875 mg/kg/day, iv administered on day 1, 5 and 9 relative to control; assay type: functional; settings: HCT-116, 24 h, read-out: TGI
Mus musculus [5] = assay: Toxicity in BALB/c mouse assessed as mortality at 3.75 mg/kg/day, iv administered on day 1, 5 and 9; assay type: organism-based; set-up: route intravenous; settings: in vivo
Liver = assay: Metabolic stability in BALB/c mouse liver microsomes at 1 umol/l by LC-MS/MS analysis; assay type: ADME; settings: 1 µM
HCT-116 [6] = assay: Antitumor activity against human HCT116 cells xenografted in BALB/c mouse assessed as tumor growth inhibition at 15 mg/kg/day, iv administered on day 1, 5 and 9 relative to control; assay type: functional; settings: HCT-116, 24 h, read-out: TGI
Mus musculus [7] = assay: Toxicity in BALB/c mouse assessed as mortality at 1.875 mg/kg/day, iv administered on day 1, 5 and 9; assay type: organism-based; set-up: route intravenous; settings: in vivo
HCT-116 [8] = assay: Antitumor activity against human HCT116 cells xenografted in BALB/c mouse assessed as tumor growth inhibition at 3.75 mg/kg/day, iv administered on day 1, 5 and 9 relative to control; assay type: functional; settings: HCT-116, 24 h, read-out: TGI
HT-29 = assay: Cytotoxicity against human HT-29 cells after 96 hrs by microplate reader analysis; assay type: functional, cell-based; settings: HT-29, 96 h
A549 = assay: Cytotoxicity against human A549 cells after 96 hrs by microplate reader analysis; assay type: functional, cell-based; settings: A549, 96 h
HCT-116 [9] = assay: Cytotoxicity against human HCT116 cells after 96 hrs by microplate reader analysis; assay type: functional, cell-based; settings: HCT-116, 96 h
Mus musculus [10] = assay: Toxicity in BALB/c mouse assessed as mortality at 10 mg/kg/day, iv administered on day 1, 5 and 9; assay type: organism-based; set-up: route intravenous; settings: in vivo
Mus musculus [11] = assay: Toxicity in BALB/c mouse assessed as mortality at 5 mg/kg/day, iv administered on day 1, 5 and 9; assay type: organism-based; set-up: route intravenous; settings: in vivo
HCT-116 [12] = assay: Antitumor activity against human HCT116 cells xenografted in BALB/c mouse assessed as tumor growth inhibition at 5 mg/kg/day, iv administered on day 1, 5 and 9 relative to control; assay type: functional; settings: HCT-116, 24 h, read-out: TGI
HCT-116 [13] = assay: Antitumor activity against human HCT116 cells xenografted in BALB/c mouse assessed as tumor growth inhibition at 10 mg/kg/day, iv administered on day 1, 5 and 9 relative to control; assay type: functional; settings: HCT-116, 24 h, read-out: TGI
HCT-116 [14] = assay: Antitumor activity against human HCT116 cells xenografted in BALB/c mouse assessed as tumor growth inhibition at 25 mg/kg/day, iv administered on day 1, 5 and 9 relative to control; assay type: functional; settings: HCT-116, 24 h, read-out: TGI
Mus musculus [15] = assay: Toxicity in BALB/c mouse assessed as mortality at 12.5 mg/kg/day, iv administered on day 1, 5 and 9; assay type: organism-based; set-up: route intravenous; settings: in vivo
HCT-116 [16] = assay: Antitumor activity against human HCT116 cells xenografted in BALB/c mouse assessed as tumor growth inhibition at 12.5 mg/kg/day, iv administered on day 1, 5 and 9 relative to control; assay type: functional; settings: HCT-116, 24 h, read-out: TGI

## COc1c(Cl)c2c(c(OC)c1OC)-c1ccc(OC)c(=O)cc1[C@@H](NC(C)=O)CC2
Mus musculus [1]
  Activity: Non-toxic
Mus musculus [2]
  Activity: Non-toxic
HCT-116 [3]
  inhibition in vivo at 7.5 mg/kg/day: 62.6%
HCT-116 [4]
  inhibition in vivo at 1.875 mg/kg/day: 36.7%
Mus musculus [5]
  Activity: Non-toxic
Liver
  Stability: 28 µL/min/mg
HCT-116 [6]
  inhibition in vivo at 15 mg/kg/day: 76.5%
Mus musculus [7]
  Activity: Non-toxic
HCT-116 [8]
  inhibition in vivo at 3.75 mg/kg/day: 56.4%

## COc1c(Cl)c2c(c(OC)c1OC)-c1ccc(OC)c(=O)cc1[C@@H](N)CC2
HT-29
  IC50: 225 nM
A549
  IC50: 241 nM
HCT-116 [9]
  IC50: 207 nM

## COc1c(Cl)c2c(c(OC)c1OC)-c1ccc(OC)c(=O)cc1[C@@H](NC(=O)C(F)(F)F)CC2
HT-29
  IC50: 1.5 nM
Mus musculus [10]
  Activity: Non-toxic
A549
  IC50: 1.8 nM
HCT-116 [9]
  IC50: 1.5 nM
Mus musculus [11]
  Activity: Non-toxic
Liver
  Stability: 339 µL/min/mg
HCT-116 [12]
  inhibition in vivo at 5 mg/kg/day: 30.6%
HCT-116 [13]
  inhibition in vivo at 10 mg/kg/day: 62.7%

## CCC(=O)N[C@H]1CCc2c(Cl)c(OC)c(OC)c(OC)c2-c2ccc(OC)c(=O)cc21
HT-29
  IC50: 3.3 nM
HCT-116 [14]
  inhibition in vivo at 25 mg/kg/day: 76.1%
A549
  IC50: 7.8 nM
HCT-116 [9]
  IC50: 7.5 nM
Mus musculus [15]
  Activity: Non-toxic
Liver
  Stability: 302 µL/min/mg
HCT-116 [16]
  inhibition in vivo at 12.5 mg/kg/day: 57.3%

## CCCC(=O)N[C@H]1CCc2c(Cl)c(OC)c(OC)c(OC)c2-c2ccc(OC)c(=O)cc21
HT-29
  IC50: 8.3 nM
A549
  IC50: 9.8 nM
HCT-116 [9]
  IC50: 7.6 nM

## COc1c(Cl)c2c(c(OC)c1OC)-c1ccc(OC)c(=O)cc1[C@@H](NC(=O)CC(C)C)CC2
HT-29
  IC50: 16.1 nM
A549
  IC50: 40.3 nM
HCT-116 [9]
  IC50: 23.7 nM

## CCCCCCC(=O)N[C@H]1CCc2c(Cl)c(OC)c(OC)c(OC)c2-c2ccc(OC)c(=O)cc21
HT-29
  IC50: 38.3 nM
A549
  IC50: 49.7 nM
HCT-116 [9]
  IC50: 36.9 nM

## COc1c(Cl)c2c(c(OC)c1OC)-c1ccc(OC)c(=O)cc1[C@@H](NC(=O)C1CCCCC1)CC2
HT-29
  IC50: 7.1 nM
A549
  IC50: 10.4 nM
HCT-116 [9]
  IC50: 7.2 nM

## COc1c(Cl)c2c(c(OC)c1OC)-c1ccc(OC)c(=O)cc1[C@@H](NC(=O)c1ccccc1)CC2
HT-29
  IC50: 1.6 nM
A549
  IC50: 4.7 nM
HCT-116 [9]
  IC50: 1.4 nM

## COc1c(Cl)c2c(c(OC)c1OC)-c1ccc(OC)c(=O)cc1[C@@H](NC(=O)c1ccccc1F)CC2
HT-29
  IC50: 1.5 nM
A549
  IC50: 1.7 nM
HCT-116 [9]
  IC50: 1.6 nM

## COc1c(Cl)c2c(c(OC)c1OC)-c1ccc(OC)c(=O)cc1[C@@H](NC(=O)c1cccc(F)c1)CC2
HT-29
  IC50: 1.5 nM
A549
  IC50: 3.5 nM
HCT-116 [9]
  IC50: 1.6 nM

## COc1c(Cl)c2c(c(OC)c1OC)-c1ccc(OC)c(=O)cc1[C@@H](NC(=O)c1ccc(F)cc1)CC2
HT-29
  IC50: 2.2 nM
A549
  IC50: 6.7 nM
HCT-116 [9]
  IC50: 5.5 nM

## COc1c(Cl)c2c(c(OC)c1OC)-c1ccc(OC)c(=O)cc1[C@@H](NC(=O)c1cc(F)c(F)c(F)c1)CC2
HT-29
  IC50: 6.3 nM
A549
  IC50: 6.6 nM
HCT-116 [9]
  IC50: 7.2 nM

## COc1ccccc1C(=O)N[C@H]1CCc2c(Cl)c(OC)c(OC)c(OC)c2-c2ccc(OC)c(=O)cc21
HT-29
  IC50: 12.5 nM
A549
  IC50: 13.2 nM
HCT-116 [9]
  IC50: 26.4 nM

## COc1cccc(C(=O)N[C@H]2CCc3c(Cl)c(OC)c(OC)c(OC)c3-c3ccc(OC)c(=O)cc32)c1
HT-29
  IC50: 1.4 nM
A549
  IC50: 2.7 nM
HCT-116 [9]
  IC50: 1.6 nM

## COc1ccc(C(=O)N[C@H]2CCc3c(Cl)c(OC)c(OC)c(OC)c3-c3ccc(OC)c(=O)cc32)cc1
HT-29
  IC50: 8 nM
A549
  IC50: 3.8 nM
HCT-116 [9]
  IC50: 8 nM

## COc1ccc(C(=O)N[C@H]2CCc3c(Cl)c(OC)c(OC)c(OC)c3-c3ccc(OC)c(=O)cc32)c(OC)c1
HT-29
  IC50: 53.1 nM
A549
  IC50: 85.4 nM
HCT-116 [9]
  IC50: 57.3 nM

## COc1cc(OC)cc(C(=O)N[C@H]2CCc3c(Cl)c(OC)c(OC)c(OC)c3-c3ccc(OC)c(=O)cc32)c1
HT-29
  IC50: 7.9 nM
A549
  IC50: 14.2 nM
HCT-116 [9]
  IC50: 6.5 nM

## COc1cc(C(=O)N[C@H]2CCc3c(Cl)c(OC)c(OC)c(OC)c3-c3ccc(OC)c(=O)cc32)cc(OC)c1OC
HT-29
  IC50: 47.7 nM
A549
  IC50: 124 nM
HCT-116 [9]
  IC50: 51.7 nM
